Results taken from ChEMBL document CHEMBL5532698, “2,3-Dihydroquinazolin-4(1H)-ones and quinazolin-4(3H)-ones as broad-spectrum cytotoxic agents and their impact on tubulin polymerisation” (RSC Med Chem, 2024).
Activity calls are given as the source filed them. The rule behind the calls is not given here.

Legend:
[1] = test system: A2780; assay: Antiproliferative activity against human A2780 cells assessed as cell growth inhibition at 25 uM incubated for 72 hrs by MTT assay relative to control; type: functional
[2] = test system: MCF7; assay: Antiproliferative activity against human MCF7 cells assessed as cell growth inhibition at 25 uM incubated for 72 hrs by MTT assay relative to control; type: functional
[3] = Cytotoxicity against human MCF-10A cells assessed as cell growth inhibition incubated for 72 hrs by MTT assay; type: toxicity, cell-based
[4] = test system: NCI-H460; assay: Antiproliferative activity against human NCI-H460 cells assessed as cell growth inhibition at 25 uM incubated for 72 hrs by MTT assay relative to control; type: functional
[5] = test system: DU-145; assay: Antiproliferative activity against human DU-145 cells assessed as cell growth inhibition at 25 uM incubated for 72 hrs by MTT assay relative to control; type: functional
[6] = test system: HT-29; assay: Antiproliferative activity against human HT-29 cells assessed as cell growth inhibition incubated for 72 hrs by MTT assay; type: functional
[7] = Antiproliferative activity against human SJG2 cells assessed as cell growth inhibition incubated for 72 hrs by MTT assay; type: functional; settings: SJ-G2
[8] = Cytotoxicity against human MCF-10A cells assessed as cell growth inhibition at 25 uM incubated for 72 hrs by MTT assay relative to control; type: toxicity, cell-based
[9] = molecular target: T1, Tubulin (Homo sapiens) (UniProt P68371+Q9H4B7+P0DPH7+P68366+Q13509+Q71U36+P04350+Q3ZCM7+P07437+P68363+Q9BQE3+Q6PEY2+Q13885+Q9BVA1+Q9BUF5); assay: Induction of tubulin (unknown origin) polymerization assessed as microtubule formation by measuring increase in fluorescence at 10 uM by fluorometric analysis; type: protein-complex assay
[10] = test system: A2780; assay: Antiproliferative activity against human A2780 cells assessed as cell growth inhibition incubated for 72 hrs by MTT assay; type: functional
[11] = test system: MCF7; assay: Antiproliferative activity against human MCF7 cells assessed as cell growth inhibition incubated for 72 hrs by MTT assay; type: functional
[12] = test system: U-87 MG; assay: Antiproliferative activity against human U87 cells assessed as cell growth inhibition incubated for 72 hrs by MTT assay; type: functional, U-87MG ATCC
[13] = test system: A-431; assay: Antiproliferative activity against human A-431 cells assessed as cell growth inhibition incubated for 72 hrs by MTT assay; type: functional
[14] = test system: BE(2)-C; assay: Antiproliferative activity against human BE2C cells assessed as cell growth inhibition at 25 uM incubated for 72 hrs by MTT assay relative to control; type: functional
[15] = test system: U-87 MG; assay: Antiproliferative activity against human U87 cells assessed as cell growth inhibition at 25 uM incubated for 72 hrs by MTT assay relative to control; type: functional, U-87MG ATCC
[16] = test system: A-431; assay: Antiproliferative activity against human A-431 cells assessed as cell growth inhibition at 25 uM incubated for 72 hrs by MTT assay relative to control; type: functional
[17] = Antiproliferative activity against human SJG2 cells assessed as cell growth inhibition at 25 uM incubated for 72 hrs by MTT assay relative to control; type: functional; settings: SJ-G2
[18] = test system: MIA PaCa-2; assay: Antiproliferative activity against human MIA PaCa-2 cells assessed as cell growth inhibition incubated for 72 hrs by MTT assay; type: functional
[19] = test system: NCI-H460; assay: Antiproliferative activity against human NCI-H460 cells assessed as cell growth inhibition incubated for 72 hrs by MTT assay; type: functional
[20] = test system: MIA PaCa-2; assay: Antiproliferative activity against human MIA PaCa-2 cells assessed as cell growth inhibition at 25 uM incubated for 72 hrs by MTT assay relative to control; type: functional
[21] = test system: DU-145; assay: Antiproliferative activity against human DU-145 cells assessed as cell growth inhibition incubated for 72 hrs by MTT assay; type: functional
[22] = test system: BE(2)-C; assay: Antiproliferative activity against human BE2C cells assessed as cell growth inhibition incubated for 72 hrs by MTT assay; type: functional
[23] = test system: HT-29; assay: Antiproliferative activity against human HT-29 cells assessed as cell growth inhibition at 25 uM incubated for 72 hrs by MTT assay relative to control; type: functional
[24] = test system: MIA PaCa-2; assay: Induction of G2/M phase cell cycle arrest in human MIA PaCa-2 cells assessed as G1 phase cells at 0.1 uM incubated for 24 hrs by PI/RNase staining based analysis (reference value: 66 +/- 2%); type: functional
[25] = test system: MIA PaCa-2; assay: Induction of G2/M phase cell cycle arrest in human MIA PaCa-2 cells assessed as sub G1 phase cells at 0.5 uM incubated for 24 hrs by PI/RNase staining based analysis (reference value: 4 +/- 2%); type: functional
[26] = test system: MIA PaCa-2; assay: Induction of G2/M phase cell cycle arrest in human MIA PaCa-2 cells at 0.1 uM incubated for 24 hrs by PI/RNase staining based analysis (reference value: 20 +/- 1%); type: functional
[27] = test system: MIA PaCa-2; assay: Induction of G2/M phase cell cycle arrest in human MIA PaCa-2 cells assessed as G1 phase cells at 0.5 uM incubated for 24 hrs by PI/RNase staining based analysis (reference value: 66 +/- 2%); type: functional
[28] = molecular target: T1, Tubulin (Homo sapiens); assay: Inhibition of tubulin (unknown origin) polymerization assessed as reduction microtubule formation at 10 uM measured after approximately 1 hrs by fluorometric analysis; type: protein-complex assay
[29] = test system: MIA PaCa-2; assay: Induction of G2/M phase cell cycle arrest in human MIA PaCa-2 cells assessed as sub G1 phase cells at 0.1 uM incubated for 24 hrs by PI/RNase staining based analysis (reference value: 4 +/- 2%); type: functional
[30] = test system: MIA PaCa-2; assay: Induction of G2/M phase cell cycle arrest in human MIA PaCa-2 cells assessed as S phase cells at 0.5 uM incubated for 24 hrs by PI/RNase staining based analysis (reference value: 11 +/- 1%); type: functional
[31] = test system: MIA PaCa-2; assay: Induction of G2/M phase cell cycle arrest in human MIA PaCa-2 cells assessed as S phase cells at 0.1 uM incubated for 24 hrs by PI/RNase staining based analysis (reference value: 11 +/- 1%); type: functional
[32] = test system: MIA PaCa-2; assay: Induction of G2/M phase cell cycle arrest in human MIA PaCa-2 cells at 0.5 uM incubated for 24 hrs by PI/RNase staining based analysis (reference value: 20 +/- 1%); type: functional
[33] = molecular target: T1, Tubulin (Homo sapiens); assay: Inhibition of tubulin (unknown origin) polymerization assessed as reduction microtubule formation at 10 uM by fluorometric analysis; type: protein-complex assay

| SMILES | GI50 [6] [nM] | GI50 [10] [nM] | GI50 [11] [nM] | GI50 [12] [nM] | GI50 [13] [nM] | GI50 [18] [nM] | GI50 [19] [nM] | GI50 [21] [nM] | inhibition at 25 µM [1] [%] | inhibition at 25 µM [2] [%] | GI50 at 72 h [3] [nM] | inhibition at 25 µM [4] [%] | inhibition at 25 µM [5] [%] | GI50 [7] [nM] | inhibition at 72 h, 25 µM [8] [%] | inhibition at 25 µM [14] [%] | inhibition at 25 µM [15] [%] | inhibition at 25 µM [16] [%] | inhibition at 25 µM [17] [%] | inhibition at 25 µM [20] [%] | further results |
| --- | --- | --- | --- | --- | --- | --- | --- | --- | --- | --- | --- | --- | --- | --- | --- | --- | --- | --- | --- | --- | --- |
| O=C1NC(/C=C/c2ccccc2[N+](=O)[O-])Nc2ccccc21 (stereo not given) | – | – | – | – | – | – | – | – | 69 | 55 | – | 35 | 66 | – | 13 | 53 | 24 | 40 | 81 | 32 | Activity [9]: inactive; inhibition at 25 µM [23]: 37% |
| CC(=O)O[C@H]1C(=O)[C@@]2(C)[C@H]([C@H](OC(=O)c3ccccc3)[C@]3(O)C[C@H](OC(=O)[C@H](O)[C@@H](NC(=O)c4ccccc4)c4ccccc4)C(C)=C1C3(C)C)[C@]1(OC(C)=O)CO[C@@H]1C[C@@H]2O | – | – | – | – | – | – | – | – | – | – | – | – | – | – | – | – | – | – | – | – | Activity ([9]; filed as activator): Active |
| Cc1ccc2[nH]cc(-c3nc4ccccc4c(=O)[nH]3)c2c1 | 390 | 1300 | 280 | 16000 | 570 | 1000 | 3700 | > 50000 | – | – | 1200 | – | – | > 50000 | – | – | – | – | – | – | Activity ([9]; filed as activator): Active; GI50 [22]: 630 nM |
| COc1ccc(/C=C/c2nc3ccccc3c(=O)[nH]2)cc1 | 3800 | 12000 | 2600 | > 50000 | 33000 | 5500 | 11000 | 45000 | 66 | > 100 | 11000 | 60 | 41 | 6400 | 60 | 66 | 24 | 45 | 89 | 67 | inhibition [33]: Active; GI50 [22]: 4400 nM; inhibition at 25 µM [23]: 78% |
| COc1cccc(C2NC(=O)c3ccccc3N2)c1 (stereo not given) | 1700 | 2600 | 5800 | 2700 | 2100 | 4100 | 3300 | 2300 | 100 | 85 | 3200 | 100 | > 100 | 3300 | > 100 | > 100 | 99 | > 100 | > 100 | 94 | GI50 [22]: 2300 nM; inhibition at 25 µM [23]: > 100% |

The next lines start with results.

| GI50 [6] [nM] | GI50 [10] [nM] | GI50 [11] [nM] | GI50 [12] [nM] | GI50 [13] [nM] | GI50 [18] [nM] | GI50 [19] [nM] | GI50 [21] [nM] | SMILES | inhibition at 25 µM [1] [%] | inhibition at 25 µM [2] [%] | GI50 at 72 h [3] [nM] | inhibition at 25 µM [4] [%] | inhibition at 25 µM [5] [%] | GI50 [7] [nM] | inhibition at 72 h, 25 µM [8] [%] | inhibition at 25 µM [14] [%] | inhibition at 25 µM [15] [%] | inhibition at 25 µM [16] [%] | inhibition at 25 µM [17] [%] | inhibition at 25 µM [20] [%] | further results |
| --- | --- | --- | --- | --- | --- | --- | --- | --- | --- | --- | --- | --- | --- | --- | --- | --- | --- | --- | --- | --- | --- |
| 3500 | 3900 | 14000 | 19000 | 3600 | 13000 | 12000 | 17000 | O=C1NC(CCc2ccccc2)Nc2ccccc21 (stereo not given) | 29 | 38 | 14000 | < 10 | 27 | 16000 | 23 | 19 | < 10 | 14 | 16 | 27 | Activity ([9]; filed as activator): Active; GI50 [22]: 3600 nM; inhibition at 25 µM [23]: 29% |
| 20 | 31 | 75 | 220 | 20 | 48 | 37 | 89 | O=C1NC(c2cccc3ccccc23)Nc2ccccc21 (stereo not given) | > 100 | > 100 | 40 | > 100 | > 100 | 50 | > 100 | > 100 | 93 | > 100 | > 100 | 94 | Activity [24]: 63%; Activity [25]: 17%; Activity [26]: 22%; Activity [27]: 17%; inhibition [28]: Active; Activity [29]: 4%; Activity [30]: 11%; Activity [31]: 11%; Activity [32]: 55%; GI50 [22]: 27 nM; inhibition at 25 µM [23]: > 100% |
| 900 | 2600 | 470 | 10000 | 2600 | 2900 | 2200 | 3900 | COc1cccc(/C=C/c2nc3ccccc3c(=O)[nH]2)c1 | > 100 | > 100 | 2200 | > 100 | 78 | 2800 | 95 | 99 | 75 | > 100 | 100 | 93 | Activity [9]: inactive; GI50 [22]: 2100 nM; inhibition at 25 µM [23]: > 100% |
| 400 | 450 | 1300 | 2700 | 640 | 2300 | 2500 | 2400 | O=c1[nH]c(/C=C/c2ccccc2)nc2ccccc12 | > 100 | > 100 | 2300 | > 100 | > 100 | 2200 | > 100 | > 100 | > 100 | > 100 | > 100 | 96 | Activity [9]: inactive; GI50 [22]: 500 nM; inhibition at 25 µM [23]: > 100% |
